Measurements taken from patent US20050148633A1 (priority 2003, published 2005).
pIC50: −log10 of the molar value.

System: IL-2 production
Assay: Inhibition of IL-2 production in PHA-activated Jurkat cells (ELISA)
Format: cell-based
Settings: Homo sapiens
Procedure: Jurkat cells were placed in a 96 well plate (0.5 million cells per well in 1% FBS medium) then test compounds of this invention were added at different concentrations. After 10 minutes, the cells were activated with PHA (final concentration 2.5 μg/mL) and incubated for 20 hours at 37° C. under CO2. The final volume was 200 μL. Following incubation, the cells were centrifuged and the supernatants collected and stored at −70° C. prior to assaying for IL-2 production. A commercial ELISA kit (IL-2 Eli-pair, Diaclone Research, Besancon, France) was used to detect production of IL-2, from which dose response curves were obtained. The IC50 value was calculated as the concentration at which 50% of maximum IL-2 production after stimulation was inhibited versus a non-stimulation control.

[1] = PHA 2.5 μg/mL, 20 hours, value bins

Compound	pIC50 [1]	further results
O=C(Nc1ccc(-c2ccccc2C(F)(F)F)cc1)c1ccncc1F [Compound 1, 3-Fluoro-N-(2′-trifluoromethyl-biphenyl-4-yl)-isonicotinamide]	6.30 to 7.00	–
Cc1ccccc1-c1ccc(NC(=O)c2ccncc2F)cc1 [Compound 2, 3-Fluoro-N-(2′-methyl-biphenyl-4-yl)-isonicotinamide]	6.30 to 7.00	–
O=C(Nc1ccc(-c2cccc(C(F)(F)F)c2)cc1)c1ccncc1F [Compound 3, 3-Fluoro-N-(3′-trifluoromethyl-biphenyl-4-yl)-isonicotinamide]	–	pIC50 (PHA, bin 500 nM-1 μM): 6.00 to 6.30
O=C(Nc1ccc(-c2ccccc2C(F)(F)F)c(C(F)(F)F)c1)c1cccc(F)c1F [Compound 4, N-(2,2′-Bis-trifluoromethyl-biphenyl-4-yl)-2,3-difluoro-benzamide]	–	pIC50 (PHA, bin 500 nM-1 μM): 6.00 to 6.30
CN(C)C(=O)c1ccccc1-c1ccc(NC(=O)c2cccc(F)c2F)cc1 [Compound 6, 4′-(2,3-Difluoro-benzoylamino)-biphenyl-2-carboxylic acid dimethylamide]	–	pIC50 (PHA, bin >1 μM): < 6.00
O=C(Nc1ccc(-c2ccccc2C(F)(F)F)cc1)c1cccnc1 [Compound 7, N-(2′-Trifluoromethyl-biphenyl-4-yl)-nicotinamide]	–	pIC50 (PHA, bin 500 nM-1 μM): 6.00 to 6.30
O=C(Nc1ccc(-c2ccccc2C(F)(F)F)cc1)c1ccncc1 [Compound 8, N-(2′-Trifluoromethyl-biphenyl-4-yl)-isonicotinamide]	6.30 to 7.00	–
O=C(Nc1ccc(-c2ccccc2C(F)(F)F)cc1)c1cccs1 [Compound 9, Thiophene-2-carboxylic acid (2′-trifluoromethyl-biphenyl-4-yl)-amide]	–	pIC50 (PHA, bin >1 μM): < 6.00
O=C(Nc1ccc(-c2ccccc2C(F)(F)F)cc1)c1ccc(F)cc1 [Compound 10, 4-Fluoro-N-(2′-trifluoromethyl-biphenyl-4-yl)-benzamide]	–	pIC50 (PHA, bin >1 μM): < 6.00
Cc1nc(C)c(C(=O)Nc2ccc(-c3ccccc3C(F)(F)F)cc2)s1 [Compound 11, 2,4-Dimethyl-thiazole-5-carboxylic acid (2′-trifluoromethyl-biphenyl-4-yl)-amide]	–	pIC50 (PHA, bin >1 μM): < 6.00
O=C(Nc1ccc(-c2ccccc2C(F)(F)F)cc1)c1cnccc1C(F)(F)F [Compound 12, 4-Trifluoromethyl-N-(2′-trifluoromethyl-biphenyl-4-yl)-nicotinamide]	6.30 to 7.00	–
Cc1nc(C(=O)Nc2ccc(-c3ccccc3C(F)(F)F)cc2)c(C(F)(F)F)o1 [Compound 13, 2-Methyl-5-trifluoromethyl-oxazole-4-carboxylic acid (2′-trifluoromethyl-biphenyl-4-yl)-amide]	–	pIC50 (PHA, bin >1 μM): < 6.00
CCn1nc(C)cc1C(=O)Nc1ccc(-c2ccccc2C(F)(F)F)cc1 [Compound 14, 2-Ethyl-5-methyl-2H-pyrazole-3-carboxylic acid (2′-trifluoromethyl-biphenyl-4-yl)-amide]	–	pIC50 (PHA, bin >1 μM): < 6.00
O=C(Nc1ccc(-c2ccccc2C(F)(F)F)cc1)c1cccc(F)c1F [Compound 15, 2,3-Difluoro-N-(2′-trifluoromethyl-biphenyl-4-yl)-benzamide]	6.30 to 7.00	–
O=C(Nc1ccc(-c2ccccc2C(F)(F)F)cc1)c1cc(F)ccc1F [Compound 16, 2,5-Difluoro-N-(2′-trifluoromethyl-biphenyl-4-yl)-benzamide]	6.30 to 7.00	–
O=C(Nc1ccc(-c2ccccc2C(F)(F)F)cc1F)c1cccc(F)c1F [Compound 17, 2,3-Difluoro-N-(3-fluoro-2′-trifluoromethyl-biphenyl-4-yl)-benzamide]	–	pIC50 (PHA, bin >1 μM): < 6.00
O=C(Nc1ccc(-c2cc(C(F)(F)F)ccc2C(F)(F)F)cc1)c1cccc(F)c1F [Compound 18, N-(2′,5′-Bis-trifluoromethyl-biphenyl-4-yl)-2,3-difluoro-benzamide]	> 7.00	–
O=C(Nc1ccc(-c2cc(C(F)(F)F)ccc2F)cc1)c1cccc(F)c1F [Compound 19, 2,3-Difluoro-N-(2′-fluoro-5′-trifluoromethyl-biphenyl-4-yl)-benzamide]	6.30 to 7.00	–
O=C(Nc1ccc(-c2ccc(F)cc2C(F)(F)F)cc1)c1cccc(F)c1F [Compound 20, 2,3-Difluoro-N-(4′-fluoro-2′-trifluoromethyl-biphenyl-4-yl)-benzamide]	> 7.00	–
O=C(Nc1ccc(-c2c(C(F)(F)F)cc3ccccn23)cc1)c1cccc(F)c1F [Compound 21, 2,3-Difluoro-N-[4-(2-trifluoromethyl-indolizin-3-yl)-phenyl]-benzamide]	> 7.00	–
O=C(Nc1ccc(-c2c(F)cccc2C(F)(F)F)cc1)c1cccc(F)c1F [Compound 22, 2,3-Difluoro-N-(2′-fluoro-6′-trifluoromethyl-biphenyl-4-yl)-benzamide]	6.30 to 7.00	–
O=C(Nc1ccc(-c2ccccc2C(F)(F)F)cc1)c1ccccn1 [Compound 25, Pyridine-2-carboxylic acid (2′-trifluoromethyl-biphenyl-4-yl)-amide]	–	pIC50 (PHA, bin >1 μM): < 6.00

Compound	pIC50 [1]	further results
O=C(Nc1ccc(-c2ccccc2C(F)(F)F)cc1)c1cnccn1 [Compound 26, Pyrazine-2-carboxylic acid (2′-trifluoromethyl-biphenyl-4-yl)-amide]	–	pIC50 (PHA, bin >1 μM): < 6.00
Cc1nnsc1C(=O)Nc1ccc(-c2cc(C(F)(F)F)ccc2Cl)cc1 [Compound 27, 4-Methyl-[1,2,3]thiadiazole-5-carboxylic acid (2′-chloro-5′-trifluoromethyl-biphenyl-4-yl)-amide]	> 7.00	–
O=C(Nc1ccc(-c2cc(C(F)(F)F)ccc2C(F)(F)F)cc1)c1cc(F)ccc1F [Compound 28, N-(2′,5′-Bis-trifluoromethyl-biphenyl-4-yl)-2,5-difluoro-benzamide]	> 7.00	–
O=C(Nc1ccc(-n2c(C(F)(F)F)nnc2C(F)(F)F)cc1)c1cccc(F)c1F [Compound 32, N-[4-(3,5-Bis-trifluoromethyl-[1,2,4]triazol-4-yl)-phenyl]-2,3-difluoro-benzamide]	6.30 to 7.00	–
Cc1ccsc1C(=O)Nc1ccc(-n2c(C(F)(F)F)nnc2C(F)(F)F)cc1 [Compound 34, 3-Methyl-thiophene-2-carboxylic acid-(4-(3,5-bis-trifluoromethyl-[1,2,4]triazol-4-yl)-phenyl)-amide]	6.30 to 7.00	–
O=C(Nc1ccc(-n2c(-c3cccs3)nnc2C(F)(F)F)cc1)c1cccc(F)c1F [Compound 35]	–	pIC50 (PHA, bin 500 nM-1 μM): 6.00 to 6.30
N#Cc1cc(C(F)(F)F)cnc1-c1ccc(NC(=O)c2cccc(F)c2F)cc1 [Compound 37, N-[4-(3-cyano-5-trifluoromethyl-pyrid-2-yl)-phenyl]-2,3-difluoro-benzamide]	6.30 to 7.00	–
COc1ccccc1C(=O)Nc1ccc(-c2cc(C(F)(F)F)ccc2C(F)(F)F)cc1 [Compound 38, N-(2′,5′-bis-trifluoromethyl-biphenyl-4-yl)-2-methoxy-benzamide]	6.30 to 7.00	–
Cc1cc(C(=O)Nc2ccc(-c3cc(C(F)(F)F)ccc3C(F)(F)F)cc2)no1 [Compound 39, 5-Methyl-isoxazol-3-carboxylic acid (2′,5′-bis-trifluoromethyl-biphenyl-4-yl)-amide]	–	pIC50 (PHA, bin 500 nM-1 μM): 6.00 to 6.30
Cc1cc(C(=O)Nc2ccc(-c3cc(C(F)(F)F)ccc3C(F)(F)F)cc2)n(C)n1 [Compound 40, 1,3-Dimethyl-1H-pyrazol-5-carboxylic acid (2′,5′-bis-trifluoromethyl-biphenyl-4-yl)-amide]	6.30 to 7.00	–
O=C(Nc1ccc(-c2cc(C(F)(F)F)ccc2C(F)(F)F)cc1)c1csnn1 [Compound 41, [1,2,3]-Thiadiazole-4-carboxylic acid (2′,5′-bis-trifluoromethyl-biphenyl-4-yl)-amide]	6.30 to 7.00	–
O=C(Nc1ccc(-c2cc(C(F)(F)F)ccc2C(F)(F)F)cc1)c1ccno1 [Compound 42, Isoxazole-5-carboxylic acid (2′,5′-bis-trifluoromethyl-biphenyl-4-yl)-amide]	6.30 to 7.00	–
Cc1noc(C)c1C(=O)Nc1ccc(-c2cc(C(F)(F)F)ccc2C(F)(F)F)cc1 [Compound 43, 3,5-dimethylisoxazole-4-carboxylic acid (2′,5′-bis-trifluoromethyl-biphenyl-4-yl)-amide]	> 7.00	–
COc1ccc(Cl)cc1-c1ccc(NC(=O)c2cccc(F)c2F)cc1 [Compound 44, N-(2′-methoxy-5′-chloro-biphenyl-4-yl)-2,3-difluoro-benzamide]	> 7.00	–
Cc1ccccc1C(=O)Nc1ccc(-c2cc(C(F)(F)F)ccc2C(F)(F)F)cc1 [Compound 45]	> 7.00	–
Cc1ccc(C)c(-c2ccc(NC(=O)c3cccc(F)c3F)cc2)c1 [Compound 47, N-(2′,5′-dimethyl-biphenyl-4-yl)-2,3-difluorobenzamide]	> 7.00	–
O=C(Nc1ccc(-c2cc(C(F)(F)F)ccc2C(F)(F)F)cc1)c1ccccc1O [Compound 49, N-(2′,5′-bis-trifluoromethyl-biphenyl-4-yl)-2-hydroxybenzamide]	–	pIC50 (PHA, bin 500 nM-1 μM): 6.00 to 6.30
COc1ccc(C(C)=O)cc1-c1ccc(NC(=O)c2cccc(F)c2F)cc1 [Compound 50, N-(2′-methoxy-5′-acetyl-biphenyl-4-yl)-2,3-difluorobenzamide]	> 7.00	–
Cc1oncc1C(=O)Nc1ccc(-c2cc(C(F)(F)F)ccc2C(F)(F)F)cc1 [Compound 51, 5-methylisoxazole-4-carboxylic acid (2′,5′-bis-trifluoromethyl-biphenyl-4-yl)-amide]	6.30 to 7.00	–
Cc1cc(C)c(-c2ccc(NC(=O)c3cccc(F)c3F)cc2)cc1C [Compound 52, N-(2′,4′,5′-trimethyl-biphenyl-4-yl)-2,3-difluorobenzamide]	> 7.00	–
Cc1cccc(C(=O)Nc2ccc(-c3cc(C(F)(F)F)ccc3C(F)(F)F)cc2)c1C [Compound 53, N-(2′,5′-bis-trifluoromethyl-biphenyl-4-yl)-2,3-dimethylbenzamide]	> 7.00	–
Cc1c(Cl)cccc1C(=O)Nc1ccc(-c2cc(C(F)(F)F)ccc2C(F)(F)F)cc1 [Compound 54, N-(2′,5′-bis-trifluoromethyl-biphenyl-4-yl)-2-methyl-3-chlorobenzamide]	> 7.00	–
